In patent US20040235830A1, “Substituted cyclohexane derivatives and the use thereof in medicaments for treating cardiovascular diseases” (priority 2000, published 2004) one finds minimal effective concentration data, which are given here for nine compounds.

The test system of the test is Langendorff rat heart. The test is described as follows: Langendorff rat heart (isolated perfused heart, coronary perfusion pressure). The settings on record: constant-volume (10 ml/min) coronary perfusion, concentration from which perfusion pressure decreases (= relaxation of the coronary arteries), read-out: Decrease in the perfusion pressure from:
How it is done: The heart is rapidly removed after opening the chest cavity of anesthetized rats and is introduced into a conventional Langendorff apparatus. The coronary arteries are subjected to constant-volume (10 ml/min) perfusion, and the perfusion pressure arising thereby is recorded via an appropriate pressure transducer. A decrease in the perfusion pressure in this arrangement corresponds to a relaxation of the coronary arteries. At the same time, the pressure developed by the heart during each contraction is measured via a balloon introduced into the left ventricle, and a further pressure transducer. The rate at which the isolated heart beats is found by calculation from the number of contractions per unit time.
Take `COCC(NC(=O)[C@H]1CCCC[C@@H]1c1ccc(CN(C(=O)Oc2ccccc2)C2CC2)cc1)c1ccccc1` (stereo partly drawn) [Example 168]: the minimal effective concentration is 0.01 µM. As to `O=C(N[C@@H](CO)c1ccccc1)[C@H]1CCCC[C@@H]1c1ccc(CN(C(=O)N2CCCCC2)c2ccccc2)cc1` [Example 1, N-[4-((1S,2S)-2-{[((1R)-2-Hydroxy-1-phenylethyl)amino]carbonyl}cyclohexyl)-benzyl]-N-phenyl-1-piperidinecarboxamide], the minimal effective concentration turned out to be 1 µM.

As for `C[C@H](NC(=O)[C@H]1CCCC[C@@H]1c1ccc(CN(C(=O)N2CCCC2)c2ccccc2)cc1)c1ccccc1` [Example 7], the minimal effective concentration turned out to be 0.1 µM.

`COCCN(Cc1ccc(C2CCCCC2C(=O)NC(CO)c2ccccc2)cc1)C(=O)Nc1ccccc1` (stereo not drawn) [Example 80]: the minimal effective concentration was determined as 1 µM. With `C[C@H](NC(=O)[C@H]1CCCC[C@@H]1c1ccc(COc2ccccc2)cc1)c1ccccc1` [Example 210, (1S,2S)-2-(4-[Phenoxymethyl]phenyl)-N-[(1S)-1-phenylethyl]cyclohexane-carboxamide] the figure was 0.001 µM; with `C[C@H](NC(=O)[C@H]1CCCCC1c1ccc(C(=O)N(C)C(C)(C)c2ccccc2)cc1)c1ccccc1` (stereo in doubt) [Example 177, N-Methyl-N-(1-methyl-1-phenylethyl)-4-[(1R,2S)-2-({[(1S)-1-phenylethyl]-amino}carbonyl)cyclohexyl]benzamide], 0.01 µM; with `C[C@H](NC(=O)[C@H]1CCCC[C@@H]1c1ccc(CN(C)C(C)(C)c2ccccc2)cc1)c1ccccc1` [Example 123, (1S,2S)-2-(4-{[Dimethylbenzyl(methyl)amino]methyl}phenyl)-N-[(1S)-1-phenylethyl]cyclohexanecarboxamide], 0.01 µM.

Take `O=C(NC(CO)c1ccccc1)C1CCCCC1c1ccc(CN(C(=O)Oc2ccccc2)C2CC2)cc1` (stereo not drawn) [Example 40]: the minimal effective concentration turned out to be 0.01 µM. Take `CN(Cc1ccc([C@H]2CCCC[C@@H]2C(=O)N[C@@H](CO)c2ccccc2)cc1)c1ccccc1` [Example 21]: the minimal effective concentration turned out to be 0.001 µM.
